Results as given in patent publication EP4696688A1, “BENZO-FUSED RING COMPOUND INHIBITOR, AND PREPARATION METHOD THEREFOR AND USE THEREOF” (Shanghai Hansoh Biomedical Co., Ltd., priority 2023, dated 2024).
Like-named read-outs stand apart in the source and are kept apart here. Blank lines part the entries; values can stand above or below the compound they belong to.

How the values were obtained:
[1] = target: T1, human CYP11B1 (Homo sapiens, UniProt P15538); experiment: G-402 cell enzyme experiment, CYP11B1 (cortisol product, HTRF), selectivity versus CYP11B2; assay type: cell-based; conditions: human selective factor: ratio of CYP11B1 EC50 to CYP11B2 EC50; G-402 cells
T1 construct: The main elements of an expression plasmid include ORF of human CYP11B1 or human CYP11B2; expressed in transfected cells
T1 sequence (P15538 25-503): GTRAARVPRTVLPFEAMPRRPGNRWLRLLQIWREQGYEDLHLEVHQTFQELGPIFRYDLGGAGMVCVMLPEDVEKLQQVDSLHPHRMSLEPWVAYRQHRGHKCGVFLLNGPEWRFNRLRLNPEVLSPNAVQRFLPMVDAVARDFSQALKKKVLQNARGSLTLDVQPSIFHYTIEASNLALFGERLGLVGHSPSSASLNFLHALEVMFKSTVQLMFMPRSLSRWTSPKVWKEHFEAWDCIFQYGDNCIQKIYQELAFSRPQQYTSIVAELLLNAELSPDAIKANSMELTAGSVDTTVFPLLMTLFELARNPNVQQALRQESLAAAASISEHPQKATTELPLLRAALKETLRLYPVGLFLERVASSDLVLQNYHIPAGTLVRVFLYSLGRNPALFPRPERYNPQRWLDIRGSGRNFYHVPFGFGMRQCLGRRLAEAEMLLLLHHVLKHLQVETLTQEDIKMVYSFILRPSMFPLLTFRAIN
Text: (§1) G-402 cell line was used as host cells to express (by transient or stable transfection) an enzyme of the human CYP11 family. Specifically, G-402 cell lines stably expressing human CYP11B1 and human CYP11B2 were established respectively. […] Therefore, the G-402 cell line is very suitable as a host cell for the ectopic expression of an enzyme of the CYP11 family.
(§2) The G-402 cell line, originally derived from renal myoblastoma, can be obtained from ATCC (CRL-1440). The main elements of an expression plasmid include ORF of human CYP11B1 or human CYP11B2, a suitable promoter (CMV promoter), and a suitable resistance marker (neomycin). The expression plasmid was transfected into G-402 cells by standard technology, and a specific antibiotic was then given for screening. The activity of the enzyme expressed by the screened monoclonal cells was assessed by 11-deoxycorticosterone (substrate of CYP11B2) and 11-deoxycortisol (substrate of CYP11B1).
(§3) The G-402 cells expressing CYP11 plasmid, as established in the above solution, were cultured in McCoy's 5a Modified Medium (ATCC Catalog No. 30-2007) containing 10% FCS and 400 µg/ml G418 in an incubator at 37°C and 5% CO2. A cell enzyme experiment was carried out using DMEM/F12 medium containing 2.5% charcoal-treated FBS and an appropriate concentration of a substrate (1 µM 11-deoxycorticosterone or 1 µM 11-deoxycortisol). In order to detect the activity of the enzyme in the cells, the cells were plated in a 96-well plate and incubated for 16 h. The supernatant was then transferred and analyzed for the concentration of the expected product (the product of CYP11B2: aldosterone; the product of CYP11B1: cortisol). The concentrations of these products were determined by an HTRF experiment of CisBio.
(§4) In the cell enzyme experiment, the inhibitory effect of the test compound on the generated product can reflect the inhibitory effect thereof on the enzyme. The dose-dependent inhibition of the enzyme activity by the compound was calculated by plotting the concentration of the test compound (x axis) versus the measured product level (y axis). Then, the original data was fitted to a 4-parameter sigmoidal function (Morgan-Mercer-Flodin, MMF model) by least square method: y = (AB + Cx^D) / (B + x^D) in which A is the maximum y value, B is the EC50 determined by XLFit, C is the minimum y value, and D is the slope value. The maximum value A corresponds to the amount of the product detected without an inhibitor, and C corresponds to the amount of the product detected in the G402 cells expressing an empty plasmid.
(§5) The EC50 value of the compound of the present invention was determined by the above G-402 experiment system. The activity of the CYP11B2 enzyme was determined under the conditions of 1 µM 11-deoxycorticosterone and a variable amount of the inhibitor, and the activity of the CYP11B1 enzyme was determined under the conditions of 1 µM 11-deoxycortisol and a variable amount of the inhibitor.

[2] = Pharmacokinetic determination in rats; assay type: in vivo; conditions: rat, male SD rats, plasma, oral administration (PO) 5 mg/kg; for MRT inf: read-out: MRT0-∞
Method: SD rats were used as test animals to study the pharmacokinetic behavior of the compounds of the present invention in rats (plasma) after oral administration.
3 SD rats per group, male.
Formulation of drug for oral administration: 0.5% CMC-Na (1% Tween 80)
5 g of sodium carboxymethyl cellulose (CMC-Na, viscosity: 800-1200 Cps) was weighed and dissolved in 1000 mL of purified water, and 10 g of Tween 80 was added. These materials were uniformly mixed to form a clear solution.
The example compounds were weighed and dissolved in the solution and the mixture was shaken well and ultrasonicated for 15 min to obtain a colorless clear solution with a concentration of 0.5 mg/mL. Formulation of drug for intravenous administration: 5% DMSO + 10% Solutol HS15 + 85% PBS
After overnight fasting, 3 male SD rats per group were administered orally (PO) at a dose of 5 mg/kg with an administration volume of 10 mL/kg. […]
0.2 mL of blood was collected from the jugular vein of the experimental animals before administration and at 0.25 h, 0.5 h, 1.0 h, 2.0 h, 4.0 h, 6.0 h, 8.0 h, and 24.0 h after administration and placed in an EDTA-2K test tube, and the test tube was centrifuged at 8000 rpm for 6 min at 4°C to separate the plasma, which was stored at -80°C; and the animals were fed 4 h after administration.
3 Experimental results: The final determination results were obtained by using LCMS/MS method.

[3] = target: T2, human CYP11B2 (Homo sapiens, UniProt P19099); experiment: G-402 cell enzyme experiment, CYP11B2 (aldosterone product, HTRF); assay type: cell-based; conditions: G-402 cells stably expressing human CYP11B2, 1 µM 11-deoxycorticosterone, 16 h
T2 construct: The main elements of an expression plasmid include ORF of human CYP11B1 or human CYP11B2; expressed in transfected cells
T2 sequence (P19099 25-503): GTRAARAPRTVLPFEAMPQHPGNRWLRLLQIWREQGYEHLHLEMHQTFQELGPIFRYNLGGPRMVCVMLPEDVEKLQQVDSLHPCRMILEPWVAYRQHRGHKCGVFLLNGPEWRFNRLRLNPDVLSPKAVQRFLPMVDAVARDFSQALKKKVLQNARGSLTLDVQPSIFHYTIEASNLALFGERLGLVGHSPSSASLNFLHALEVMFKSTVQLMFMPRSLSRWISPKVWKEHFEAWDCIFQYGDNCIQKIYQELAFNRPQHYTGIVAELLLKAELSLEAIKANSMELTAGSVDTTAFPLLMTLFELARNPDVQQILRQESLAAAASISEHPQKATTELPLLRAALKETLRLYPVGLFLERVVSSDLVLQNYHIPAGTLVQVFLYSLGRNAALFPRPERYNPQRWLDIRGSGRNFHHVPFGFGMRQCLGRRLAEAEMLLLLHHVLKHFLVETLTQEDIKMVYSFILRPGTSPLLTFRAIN
Text: as §1, §2, §3, §4, §5

hsF [1]: 585x
Compound: Cn1cc(C(=O)N2CC3(C2)CN(c2cncc(-c4ccc5c(ccc(=O)n5C)c4)c2)C3)cn1 [Example 69, 1-methyl-6-(5-(6-(1-methyl-1H-pyrazole-4-carbonyl)-2,6-diazaspiro[3.3]heptan-2-yl)pyridin-3-yl)quinolin-2(1H)-one]

hsF [1]: 371x
Compound: CN(c1cncc(-c2ccc3c(ccc(=O)n3C)c2)c1)C1CN(C(=O)c2cnn(C)c2)C1 [Example 74, 1-methyl-6-(5-(methyl(1-(1-methyl-1H-pyrazole-4-carbonyl)azetidin-3-yl)amino)pyridin-3-yl)quinolin-2(1)-one]

hsF [1]: > 16666x
Compound: CN1C(=O)C2CC2c2cc(-c3cncc(N4CC5(CN(C(=O)c6cnn(C)c6)C5)C4)c3)ccc21 (centres unmarked) [Example 75, 3-methyl-6-(5-(6-(1-methyl-1H-pyrazole-4-carbonyl)-2,6-diazaspiro[3.3]heptan-2-yl)pyridin-3-yl)-1,1a,3,7b-tetrahydro-2H-cyclopropa[c]quinolin-2-one]

hsF [1]: 2014x
Compound: Cn1cc(C(=O)N2CC(Oc3cncc(-c4ccc5c(ccc(=O)n5C)c4)c3)C2)cn1 [Example 98, 1-methyl-6-(5-((1-(1-methyl-1H-pyrazole-4-carbonyl)azetidin-3-yl)oxy)pyridin-3-yl)quinolin-2(1H)-one]

hsF [1]: > 3509x
Compound: Cn1cc(C(=O)N2CC(Oc3cncc(-c4ccc5c(c4)sc(=O)n5C)n3)C2)cn1 [Example 99, 3-methyl-6-(6-((1-(1-methyl-1H-pyrazole-4-carbonyl)azetidin-3-yl)oxy)pyrazin-2-yl)benzo[d]thiazol-2(3H)-one]

hsF [1]: 1372x
AUC(0-inf) ([2]; in vivo): 66.5 µg·h/mL
AUC(0-t) ([2]; in vivo): 60.4 µg·h/mL
Cmax ([2]; in vivo): 6.04 µg/mL
Tmax ([2]; in vivo): 4 h
half-life ([2]; in vivo): 7 h
MRT inf ([2]; in vivo): 9.6 h
Compound: Cn1c(=O)sc2cc(-c3cncc(N4CC5(CN(C(=O)C6(C#N)CC6)C5)C4)c3)ccc21 [Example 105, 1-(6-(5-(3-methyl-2-carbonyl-2,3-dihydrobenzo[d]thiazol-6-yl)pyridin-3-yl)-2,6-diazaspiro[3.3]heptane-2-carbonyl)cyclopropane-1-carbonitrile]

hsF [1]: 3103x
Compound: Cn1c(=O)sc2cc(-c3cncc(N4CC5(CN(C(=O)C6(C#N)CC6)C5)C4)n3)ccc21 [Example 106, 1-(6-(6-(3-methyl-2-carbonyl-2,3-dihydrobenzo[d]thiazol-6-yl)pyrazin-2-yl)-2,6-diazaspiro[3.3]heptane-2-carbonyl)cyclopropane-1-carbonitrile]

Second part, the compound before the results:

Compound: 6-(5-(2-ethoxyquinolin-6-yl)pyridin-3-yl)-2,6-diazaspiro[3.3]heptan-2-yl)(1-(methyl-d3)-1H-pyrazol-4-yl)methanone [Example 42]
hsF [1]: 393x

Compound: CCC(=O)N[C@@H]1CCCc2c(-c3ccc4c(c3)COC(=O)N4C)cncc21 [Example 1-A]
hsF [1]: 144x
AUC(0-inf) [2]: 27.7 µg·h/mL
AUC(0-t) [2]: 27.6 µg·h/mL
Cmax [2]: 6.33 µg/mL
Tmax [2]: 1 h
half-life [2]: 2.6 h
MRT inf [2]: 3.7 h

Compound: CN1C(=O)OCc2cc(-c3cncc(N4CC5(CN(C(=O)c6cnn(C)c6)C5)C4)c3)ccc21 [Example 5, 1-Methyl-6-(5-(6-(1-methyl-1H-pyrazole-4-carbonyl)-2,6-diazaspiro[3.3]heptan-2-yl)pyridin-3-yl)-1,4-dihydro-2H-benzo[d][1,3]oxazin-2-one]
hsF [1]: > 1279x

Compound: CCC(=O)NC1CCCc2c(-c3ccc4nc(OC)ccc4c3)cncc21 (centres unmarked) [Example 14-A]
EC50 [3]: 0.024 µM

Compound: CCS(=O)(=O)N1CC(Oc2cncc(-c3ccc4nc(OC)ccc4c3)c2)C1 [Example 22, 6-(5-((1-(ethylsulfonyl)azetidin-3-yl)oxy)pyridin-3-yl)-2-methoxyquinoline]
EC50 [3]: 0.005 µM

Compound: COc1ccc2cc(-c3cncc4c3CCCC4NC(C)=O)ccc2n1 (centres unmarked) [Example 24-A]
EC50 [3]: 0.016 µM

Compound: CN1C(=O)OCc2cc(-c3cncc(C4=CCN(S(=O)(=O)C5CC5)CC4)c3)ccc21 [Example 41, 6-(1'-(cyclopropylsulfonyl)-1',2',3',6'-tetrahydro-[3,4'-bipyridine]-5-yl)-1-methyl-1,4-dihydro-2H-benzo[d][1,3]oxazin-2-one]
hsF [1]: 394x

Compound: CC(=O)N[C@@H]1CCCc2c(-c3cnc4c(c3)CCC(=O)N4C)cncc21 [Example 59, (R)-N-(4-(8-methyl-7-carbonyl-5,6,7,8-tetrahydro-1,8-diazanaphthalen-3-yl)-5,6,7,8-tetrahydroisoquinolin-8-yl)acetamide]
hsF [1]: > 388x

Compound: CCC(=O)N[C@H]1c2cncc(-c3ccc4c(c3)sc(=O)n4C)c2C2CC21 (stereo partly drawn) [Example 66-P2, N-((6R)-4-(3-methyl-2-oxo-2,3-dihydrobenzo[d]thiazol-6-yl)-4b,5,5a,6-tetrahydrocyclopropyl[3,4]cyclopenta[1,2-c]pyridin-6-yl)propanamide]
hsF [1]: > 1471x

Compound: Cn1cc(C(=O)N2CC3(C2)CN(c2cncc(-c4ccc5c(c4)sc(=O)n5C)c2)C3)cn1 [Example 67, 3-methyl-6-(5-(6-(1-methyl-1H-pyrazole-4-carbonyl)-2,6-diazaspiro[3.3]heptan-2-yl)pyridin-3-yl)benzo[d]thiazol-2(3H)-one]
hsF [1]: > 485x
AUC(0-inf) [2]: 31.4 µg·h/mL
AUC(0-t) [2]: 31.4 µg·h/mL
Cmax [2]: 4.91 µg/mL
Tmax [2]: 4 h
half-life [2]: 2 h
MRT inf [2]: 3.9 h
